Test results: patent US7250414B2, “Diphenylmethyl compounds useful as muscarinic receptor antagonists” (Theravance, Inc., priority 2004, dated 2007)

Assays:
[1] = tested on: pilocarpine-evoked salivation; experiment: Inhalation guinea pig salivation assay; assay type: in vivo
Description: Inhalation Guinea Pig Salivation Assay
Guinea pigs (Charles River, Wilmington, Mass.) weighing 200-350 g were acclimated to the in-house guinea pig colony for at least 3 days following arrival. Test compound or vehicle were dosed via inhalation (IH) over a 10 minute time period in a pie shaped dosing chamber (R&S Molds, San Carlos, Calif.). Test solutions were dissolved in sterile water and delivered using a nebulizer filled with 5.0 mL of dosing solution. Guinea pigs were restrained in the inhalation chamber for 30 minutes. During this time, guinea pigs were restricted to an area of approximately 110 sq. cm. […] Upon completion of nebulization, guinea pigs were evaluated at 1.5, 6, 12, 24, 48, or 72 hrs after treatment.
Guinea pigs were anesthetized one hour before testing with an intramuscular (IM) injection of a mixture of ketamine 43.75 mg/kg, xylazine 3.5 mg/kg, and acepromazine 1.05 mg/kg at an 0.88 mL/kg volume. […] Saliva was collected for 10 minutes, at which point the gauze pad was weighed and the difference in weight recorded to determine the amount of accumulated saliva (in mg). The mean amount of saliva collected for animals receiving the vehicle and each dose of test compound was calculated. […] Results were calculated using result means (n=3 or greater). Confidence intervals (95%) were calculated for each dose at each time point using two-way ANOVA. […]

[2] = biological target: T1, hM3 muscarinic receptor subtype (Homo sapiens, UniProt P20309); experiment: Radioligand binding assay ([3H]-NMS displacement); conditions: CHO cell membranes, [3H]-NMS at 1 nM, Cheng-Prusoff; read-out: Ki value for the M3 muscarinic receptor subtype
T1 construct: expressed in transfected cells; crude membranes prepared in house
T1 sequence (P20309 whole entry): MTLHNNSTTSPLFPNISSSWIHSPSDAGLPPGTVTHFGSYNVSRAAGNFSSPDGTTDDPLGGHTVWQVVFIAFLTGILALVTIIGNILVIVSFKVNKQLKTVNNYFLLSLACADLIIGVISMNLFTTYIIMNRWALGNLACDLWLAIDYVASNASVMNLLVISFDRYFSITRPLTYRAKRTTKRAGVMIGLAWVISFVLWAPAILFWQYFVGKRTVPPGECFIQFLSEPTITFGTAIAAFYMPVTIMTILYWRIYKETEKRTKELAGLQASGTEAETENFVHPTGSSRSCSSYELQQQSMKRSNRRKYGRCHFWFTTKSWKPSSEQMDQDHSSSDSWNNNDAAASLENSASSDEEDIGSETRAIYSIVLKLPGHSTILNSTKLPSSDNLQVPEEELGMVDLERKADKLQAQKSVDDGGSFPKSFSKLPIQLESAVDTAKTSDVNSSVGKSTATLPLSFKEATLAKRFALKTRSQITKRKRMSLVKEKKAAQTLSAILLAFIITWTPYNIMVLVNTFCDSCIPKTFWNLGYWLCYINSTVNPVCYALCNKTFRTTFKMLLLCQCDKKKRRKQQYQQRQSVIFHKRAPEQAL
Description: A. Membrane Preparation from Cells Expressing hM1, hM2, hM3 and hM4 Muscarinic Receptor Subtypes
CHO cell lines stably expressing cloned human hM1, hM2, hM3 and hM4 muscarinic receptor subtypes, respectively, were grown to near confluency in medium consisting of HAM's F-12 supplemented with 10% FBS and 250 μg/mL Geneticin. The cells were grown in a 5% CO2, 37° C. incubator and lifted with 2 mM EDTA in dPBS. Cells were collected by 5 minute centrifugation at 650×g, and cell pellets were either stored frozen at −80° C. or membranes were prepared immediately. For membrane preparation, cell pellets were suspended in lysis buffer and homogenized with a Polytron PT-2100 tissue disrupter (Kinematica AG; 20 seconds×2 bursts). […] The protein concentration of the membrane suspension was determined by the method described in Lowry, O. et al., […] 193:265 (1951). […]
Radioligand binding assays were performed in 96-well microtiter plates in a total assay volume of 100 μL. […] Filter plates were rinsed three times with wash buffer (10 mM HEPES) to remove unbound radioactivity. […] The plates were then counted in a PerkinElmer Topcount liquid scintillation counter (PerkinElmer Inc., Wellesley, Mass.). Binding data were analyzed by nonlinear regression analysis with the GraphPad Prism Software package (GraphPad Software, Inc., San Diego, Calif.) using the one-site competition model. […]

CNCCc1ccc(CCN2CC[C@@H](C(C(N)=O)(c3ccccc3)c3ccccc3)C2)cc1 [Example 2, 2-((S)-1-{2-[4-(2-Methylaminoethyl)phenyl]ethyl}pyrrolidin-3-yl)-2,2-diphenyl-acetamide]
apparent lung selectivity index (ratio of anti-sialagogue ID50 to bronchoprotective ID50) [1]: greater than 15

Cc1cnc(CNCCc2ccc(CCN3CC[C@@H](C(C(N)=O)(c4ccccc4)c4ccccc4)C3)cc2)cn1 [Example 16, 2-{(S)-1-[2-(4-{2-[(5-methylpyrazin-2-ylmethyl)amino]ethyl}phenyl)ethyl]pyrrolidin-3-yl}-2,2-diphenylacetamide]
Ki [2]: 110 nM
